Reference: patent US6641843B1, “Pharmaceutical compositions” (SmithKline Beecham Corporation, priority 1998, dated 2003)

Test: Stability and excipient compatibility of the compound in oral solution
Format: physicochemical
From the text: Solutions of (1S,4R)-cis-4-[2-amino-6-cyclopropylamino)-9H-purin-9-yl]-2-cyclopentene-1-methanol are bitter-tasting and therefore require the addition of sweeteners and taste-maskers. However, formulation of (1S,4R)-cis-4-[2-amino-6-cyclopropylamino)-9H-purin-9-yl]-2-cyclopentene-1-methanol in solution is difficult because materials containing a —COOH group present problems with (1S,4R)-cis-4-[2-amino-6-cyclopropylamino)-9H-purin-9-yl]-2-cyclopentene-1-methanol compatibility.
Advantageously, the pH may be 3.8 to 4.5.

adduct formation with sorbitol and/or saccharin (in solution): do not lead to the formation of adducts
compatibility with combinations of fructose, acesulfame and saccharin (in solution): compatible
compatibility with sorbitol or saccharin or a combination of sorbitol and saccharin (in solution): compatible
adduct formation with glucose (in solution, glucose replaces the methanol group on the cyclopentyl ring): forms an adduct
compatibility with sucrose and glucose (in solution, sucrose degrades to glucose and fructose): incompatible
effect of addition of a metal chelator on stability in solution (metal chelator, for example citrate): improves the stability
Structure (SMILES): Nc1nc(NC2CC2)c2ncn([C@H]3C=C[C@@H](CO)C3)c2n1 [abacavir]
appearance of solutions containing sorbitol (pH 4.5-6.5): color change and the formation of dark colored particulates
effect of lowering the pH on color change and particulates (pH lowered to about 4.0): eliminates the color change and the formation of particulates
